Reference: patent US20100087475A1, “PHARMACEUTICAL COMPOUNDS” (Biovali Laboratories International (Barbados) S.R.L., priority 2008, published 2010)

Columns and labels:
[1] = molecular target: T1, Adrenergic α2A Receptor (Homo sapiens, UniProt P08913); experiment: Radioligand binding, [3H] MK-912; settings: compound at 10 μM
T1 construct: expressed in transfected cells; host or cells: insect Sf9 cells
T1 sequence (P08913 1-465): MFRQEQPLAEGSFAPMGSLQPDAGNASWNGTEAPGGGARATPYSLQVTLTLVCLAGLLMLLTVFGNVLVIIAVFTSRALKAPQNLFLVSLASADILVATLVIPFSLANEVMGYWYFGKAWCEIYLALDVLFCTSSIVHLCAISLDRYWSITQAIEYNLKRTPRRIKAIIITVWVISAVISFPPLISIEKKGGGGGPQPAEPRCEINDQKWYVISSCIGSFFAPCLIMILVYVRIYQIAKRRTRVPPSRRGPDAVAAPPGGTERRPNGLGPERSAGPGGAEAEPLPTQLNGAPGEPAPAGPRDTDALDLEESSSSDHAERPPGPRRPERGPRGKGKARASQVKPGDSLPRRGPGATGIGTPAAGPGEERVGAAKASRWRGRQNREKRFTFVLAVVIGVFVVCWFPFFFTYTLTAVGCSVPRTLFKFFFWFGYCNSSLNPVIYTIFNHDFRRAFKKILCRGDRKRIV
Method: (§1) Compounds of the invention were subjected to specific binding assays to test their ability to bind to the receptors and transporter proteins described below.
(a) Adrenergic α2A Receptor:
• Reference: S. Uhlçn et al. J. Pharmacol. Exp. Ther., 271:1558-1565 (1994) • Source: Human recombinant insect Sf9 cells • Ligand: 1 nM [^3H]

[2] = molecular target: T2, Adrenergic α2B Receptor (Homo sapiens, UniProt P18089); experiment: Radioligand binding, [3H] Rauwolscine; settings: compound at 10 μM
T2 construct: expressed in transfected cells; host or cells: CHO-K1 cells
T2 sequence (P18089 1-450): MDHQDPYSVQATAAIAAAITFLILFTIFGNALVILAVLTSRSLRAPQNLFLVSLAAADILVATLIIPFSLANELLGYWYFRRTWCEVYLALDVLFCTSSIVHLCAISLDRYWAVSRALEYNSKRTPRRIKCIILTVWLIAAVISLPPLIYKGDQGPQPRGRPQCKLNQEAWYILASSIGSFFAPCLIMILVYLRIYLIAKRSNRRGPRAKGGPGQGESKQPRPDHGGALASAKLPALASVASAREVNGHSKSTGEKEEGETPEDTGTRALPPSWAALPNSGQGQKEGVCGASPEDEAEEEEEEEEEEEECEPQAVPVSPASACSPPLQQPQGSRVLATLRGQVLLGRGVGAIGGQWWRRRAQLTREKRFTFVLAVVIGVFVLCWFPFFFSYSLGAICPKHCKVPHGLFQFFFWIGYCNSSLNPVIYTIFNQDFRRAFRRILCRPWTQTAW
Method: as §1
(b) Adrenergic α2B Receptor:
• Reference: S. Uhlen et al., Eur. J. Pharmacol., 343 (1): 93-1-01 (1998) • Source: Human recombinant CHO-K1 cells • Ligand: 2.5 nM [3H]

[3] = tested on: dopamine receptors; experiment: Receptor binding studies, overall statement on dopamine receptors; parameters: species or system Human; settings: conclusion from % inhibition at 10 μM
Method: (d) Dopamine D1 Receptor:
• Reference: Dearry et al., Nature, 347:72-76, (1990) • Source: Human recombinant CHO cells • Ligand: 1.4 nM [3H] SCH-23390 • Vehicle: 1% DMSO • Incubation time/Temp: 2 hours @ 37° C. • Incubation buffer: 50 mM Tris-HCl, pH 7.4, 150 mM NaCl, 1.4 mM ascorbic acid, 0.001% BSA • Non Specific ligand: 10 μM (+)-butaclamol • Kd: 1.4 nM • Bmax: 0.63 pmole/mg protein • Specific binding: 90% • Quantitation method: Radioligand binding • Significance criteria: ≧50% of maximum stimulation or inhibition
(e) Dopamine D2L Receptor:
• Reference: Grandy et al., Proc. Natl. Acad. Sci. USA, 86:9762-9766 (1989) • Source: Human recombinant CHO cells • Ligand: 0.16 nM [^3H]
(f) Dopamine D2S Receptor:
(g) Dopamine D3 Receptor:
• Reference: Sokoloff et al., Nature, 347:146-151, (1990) • Source: Human recombinant CHO cells • Ligand: 0.7 nM [3H]
(h) Dopamine D4.2 Receptor:
• Reference: Van Tol et al., Nature, 350:610-614 (1991) • Source: Human recombinant CHO-K1 cells • Ligand: 0.5 nM [^3H]
(i) Dopamine D4.4 Receptor:
• Reference: Van Tol et al., Nature, 350:610-614 (1991) • Source: Human recombinant CHO-K1 cells • Ligand: 1.2 nM [^3H]
(j) Dopamine D4.7 Receptor:
• Reference: Van Tol et al., Nature, 350:610-614 (1991) • Source: Human recombinant CHO-K1 cells • Ligand: 1.5 nM [^3H]

Row | % inhibition, (a) α2A Receptor [1] | % inhibition, (b) α2B Receptor [2] | inhibition of dopamine receptors (result in words) [3] | Structure (SMILES)
1 | 13% | 21% |  | COc1cc2c(cc1O)[C@@H]1C[C@@H](O)[C@H](CC(C)C)CN1CC2 (single isomer, unassigned) [(+)-10-desmethyl-γ-dihydrotetrabenazine]
2 | 69% | 44% | potent inhibitor of dopamine receptors | COc1cc2c(cc1O)[C@@H]1C[C@@H](O)[C@H](CC(C)C)CN1CC2 (single isomer, unassigned) [(−)-10-desmethyl-γ-dihydrotetrabenazine]
